Experimental data: patent US9918983B2, “Suicidal LSD1 inhibitors targeting SOX2-expressing cancer cells” (THE BOARD OF REGENTS OF THE NEVADA SYSTEM OF HIGHER …, priority 2013, dated 2018)

Target: T1, recombinant LSD1 (GST-LSD1) (Homo sapiens, UniProt O60341)
T1 construct: Human LSD1 and HDAC1 full-length cDNAs were obtained from Open Biosystems; GST (N, cleaved yes); made in house; host or cells: Escherichia coli BL21
Test: In vitro demethylation assay, recombinant LSD1, H3K4me2 peptide
Type: biochemical
Conditions: dimethylated H3K4 peptide; 50 μM CBB1007 or 2 μM MS-275
Description: H3K4me2 and H4K16ac were purchased from AnaSpec and Shanghai Science Peptide Biological Technology Co., Ltd., respectively. Human LSD1 and HDAC1 full-length cDNAs were obtained from Open Biosystems. Human CoREST cDNA was amplified by reverse transcription-PCR (RT-PCR) using mRNA isolated from HeLa cells. These cDNAs were fully sequenced and cloned into the pGEX-KG or pET28a vector and expressed as the glutathione S-transferase (GST)- or His-tagged fusion proteins in the Escherichia coli BL21 strain and affinity purified with glutathione or Ni-Sepharose (GE Healthcare, United Kingdom) resin. […]
For a typical deacetylation assay, 1 μg rHDAC1 or 1 μg immunoprecipitated endogenous HDAC1-protein A complexes (from two 10-cm dishes) was incubated with 0.4 μg H4K16ac peptide in the presence or absence of 50 μM CBB1007 or 2 μM MS-275 at 30° C. for 1 h. The percentages of deacetylated products were analyzed by mass spectrometry, and the data were analyzed by GraphPad Prism (version 5) software. The reaction products were analyzed by mass spectrometry to separate the peptide substrate (H4K16ac) and the product (H4K16), as previously described (Wang, J., et al. (2011) Cancer Research 71, 7238-7249). […]

With `COC(=O)c1cc(CN2CCN(C(=N)N)CC2)cc(C(=O)N2CCN(C(=O)c3ccc(C(=N)N)cc3)CC2)c1` [CBB1007] the “demethylation activity of GST-LSD1” value was “sensitive”.
